{"source": "patent US20220220561A1", "about": "“METHODS AND CLINICAL PROTOCOLS AND KITS PERTAINING TO MAKING AND USING THERAPEUTIC COMPOSITIONS FOR CELLULAR TREATMENT” (ADVANCED REGEN MEDICAL TECHNOLOGIES, LLC, priority 2019, published 2022)", "key": {"[1]": {"test_system": "serine-threonine protein phosphatases", "settings": "cited from earlier work"}, "Aged TNCs": {"test_system": "Aged TNCs", "experiment": "cell count and Trypan blue viability of aged TNCs cultured with CaMKP inhibitor", "format": "cell-based, human", "method": "Aged TNCs (20×10^6 cells per sample) were cultured with CaMKP inhibitor (FT-0640107 shown below) at the following concentrations 25 uM, 10 uM, 5 uM, 1 uM & 0 (vehicle). After 48 and 72 hours, cells were harvested, counted using Turk's solution and percent viability assessed using Trypan blue exclusion.\nAt 72 hours following treatment with the CaMPK inhibitor, FT-0640107, or vehicle, cells were harvested, counted and viability measured using Trypan blue exclusion."}, "heterochronic cultures": {"test_system": "heterochronic cultures", "experiment": "exosome production, total RNA and miRNA payload in heterochronic cultures", "format": "cell-based, human"}, "Restored cells": {"test_system": "Restored cells", "experiment": "transwell co-culture restoration in the presence or absence of manumycin", "format": "cell-based, human", "source_text": "Receiver cell samples (i.e., R1, R2, and R3) were individually paired with donor cell samples (i.e., D1, D2, and D3) and the pairs co-cultured in a transwell culture cell for four weeks. The morphology of the cells was studied at 2 weeks into the co-culture and at 4 weeks of co-culture. Gene expression arrays, protein arrays, and telomere length experiments compared freshly defrosted cells from the collection tubes (referred to as the baseline donor cell sample or baseline receiver cell sample) with cells at the 4-week study endpoint (referred to as restored cell samples).\nThe nature of the soluble particles passing through the permeable membrane in the transwell co-culture experiments was investigated. Specifically, transwell co-culture experiments were carried out in the presence or absence of manumycin. Manumycin, N-[(1S,5S,6R)-5-hydroxy-5-[(1E,3E,5E)-7-[(2-hydroxy-5-oxo-1-cyclopenten-1-yl)amino]-7-oxo-1,3,5-heptatrien-1-yl]-2-oxo-7-oxabicyclo[4.1.0]hept-3-en-3-yl]-2E,4E,6R-trimethyl,2,4-decadienamide, is an antibiotic that acts a potent and selective farnesytransferase inhibitor. Manumycin is also known to inhibit the release of exosomes. […] Further support for the role of exosome/microvesicles in mediating the disclosed cellular restoration process is shown in FIG. 55."}}, "data": [{"compound": "dragmacidin D", "values": [{"measurement": "inhibition of serine-threonine protein phosphatases", "setting": "[1]", "value": "potent inhibitor"}]}, {"compound": "O=C(/C=C/c1ccc(/C=C/C(=O)Nc2ccc(C3=NCCN3)cc2)cc1)Nc1ccc(C2=NCCN2)cc1", "note": "[GW4869]", "values": [{"measurement": "toxicity to aged cultures", "setting": "aged MPB", "value": "extremely toxic"}, {"measurement": "restorative phenotype", "setting": "aged MPB; blocking global exosome production, data not shown", "value": "abrogated the restorative phenotype"}]}, {"compound": "Nc1c(S(=O)(=O)O)cc(S(=O)(=O)[O-])c2cccc(O)c12.[Na+]", "note": "[FT-0640107]", "values": [{"measurement": "cell number", "setting": "Aged TNCs; 1 μM, 72 hours, vs vehicle control and 25 μM, donor A04", "value": "increase in cell number"}, {"measurement": "viability at 1 µM", "setting": "Aged TNCs; Homo sapiens, 1 μM, 72 hours, donor A04", "value": 96.3, "unit": "%"}, {"measurement": "viability at 25 µM", "setting": "Aged TNCs; Homo sapiens, 25 μM, 72 hours, donor A04", "value": 93, "unit": "%"}, {"measurement": "cell viability and number", "setting": "Aged TNCs; donor A03, 48 or 72 hour", "value": "no significant difference"}]}, {"compound": "CC(NS(=O)(=O)c1ccc2[nH]c(=O)c(=O)[nH]c2c1)C(=O)O", "note": "(centres unmarked) [BCI-137]", "values": [{"measurement": "exosome production and total RNA content", "setting": "heterochronic cultures", "value": "minimal effect"}, {"measurement": "small and miRNA payload", "setting": "heterochronic cultures", "value": "depleted"}, {"measurement": "aged MPB clonogenicity", "setting": "aged MPB; heterochronic cultures treated with inhibitor", "value": "significant decrease"}]}, {"compound": "CCCC[C@@H](C)/C=C(C)/C=C(\\C)C(=O)NC1=C[C@@](O)(/C=C/C=C/C=C/C(=O)NC2=C(O)CCC2=O)[C@@H]2O[C@@H]2C1=O", "note": "[manumycin, N-[(1S,5S,6R)-5-hydroxy-5-[(1E,3E,5E)-7-[(2-hydroxy-5-oxo-1-cyclopenten-1-yl)amino]-7-oxo-1,3,5-heptatrien-1-yl]-2-oxo-7-oxabicyclo[4.1.0]hept-3-en-3-yl]-2E,4E,6R-trimethyl,2,4-decadienamide]", "values": [{"measurement": "morphology of restored cells", "setting": "Restored cells; 5 μM", "value": "less robust morphology"}, {"measurement": "telomere length", "setting": "Restored cells; restored cell sample", "value": "decreased"}, {"measurement": "protein expression of restored cell samples", "setting": "Restored cells; vs absence of manumycin", "value": "elevated levels of all proteins investigated"}, {"measurement": "gene expression of restored cell samples", "setting": "Restored cells; vs changes seen in the absence of manumycin", "value": "did not display a change in expression levels"}]}]}
